{
  "source": "patent US7517526B2",
  "about": "“Enhancement of antibody-cytokine fusion protein mediated immune responses by combined treatment with immunocytokine uptake enhancing agents” (Merck Patent GmbH, priority 2000, dated 2009)",
  "key": {"LLC/KSA tumors": {"tested_on": "LLC/KSA tumors", "format": "in vivo", "method": "(§1) For tumor growth studies either LLC/KSA or CT26/KSA tumors were implanted subcutaneously on the backs of mice. For LLC/KSA studies, tumors were transplanted from several stock tumors that had been injected with a single cell suspension of 1×10^6 cells in 100 ul of PBS. After about two weeks, tumors were aseptically collected, passed through a sieve fitted with a 150 μm screen. Cells were then passed through a syringe and 23 gauge needle tow or three times, washed twice, and resuspended in PBS. A single cell suspension of 1×10^6 LLC/KSA cells in 100 ul of PBS was injected subcutaneously using a 30 ½ gauge needle on the backs of mice. For CT26/KSA studies, cells growing exponentially in culture were injected as a single cell suspension of 1×10^6 cells in 100 μl of PBS. After tumors had become established, about 2 weeks after implantation, dosing was initiated on Day 0. Tumors were measured with calipers in three dimensions twice weekly. Tumor volumes were calculated using the equation: Volume=½×4/3π(L/2×W/2×H) where L=length, W=width and H=height of the tumor. Animals were weighed and general health was monitored during the course of the study. When tumors became necrotic or if animals became moribund, the animals were euthanized by CO2 asphyxiation.\nData are presented in graphic form. Graphs depict individual or average tumor volumes (+/− SEM) during and after dosing. Data are also expressed as the percent of control of average tumor volumes from treated mice relative to vehicle treated mice. Student's t test was performed on the individual tumor volumes to determine significant differences."}, "[1]": {"details": "cited from earlier work"}, "[2]": {"tested_on": "multidrug resistant tumors", "details": "cited from earlier work"}, "P-glycoprotein": {"target": "P-glycoprotein (Homo sapiens, UniProt P08183)", "sequence (P08183 whole entry)": "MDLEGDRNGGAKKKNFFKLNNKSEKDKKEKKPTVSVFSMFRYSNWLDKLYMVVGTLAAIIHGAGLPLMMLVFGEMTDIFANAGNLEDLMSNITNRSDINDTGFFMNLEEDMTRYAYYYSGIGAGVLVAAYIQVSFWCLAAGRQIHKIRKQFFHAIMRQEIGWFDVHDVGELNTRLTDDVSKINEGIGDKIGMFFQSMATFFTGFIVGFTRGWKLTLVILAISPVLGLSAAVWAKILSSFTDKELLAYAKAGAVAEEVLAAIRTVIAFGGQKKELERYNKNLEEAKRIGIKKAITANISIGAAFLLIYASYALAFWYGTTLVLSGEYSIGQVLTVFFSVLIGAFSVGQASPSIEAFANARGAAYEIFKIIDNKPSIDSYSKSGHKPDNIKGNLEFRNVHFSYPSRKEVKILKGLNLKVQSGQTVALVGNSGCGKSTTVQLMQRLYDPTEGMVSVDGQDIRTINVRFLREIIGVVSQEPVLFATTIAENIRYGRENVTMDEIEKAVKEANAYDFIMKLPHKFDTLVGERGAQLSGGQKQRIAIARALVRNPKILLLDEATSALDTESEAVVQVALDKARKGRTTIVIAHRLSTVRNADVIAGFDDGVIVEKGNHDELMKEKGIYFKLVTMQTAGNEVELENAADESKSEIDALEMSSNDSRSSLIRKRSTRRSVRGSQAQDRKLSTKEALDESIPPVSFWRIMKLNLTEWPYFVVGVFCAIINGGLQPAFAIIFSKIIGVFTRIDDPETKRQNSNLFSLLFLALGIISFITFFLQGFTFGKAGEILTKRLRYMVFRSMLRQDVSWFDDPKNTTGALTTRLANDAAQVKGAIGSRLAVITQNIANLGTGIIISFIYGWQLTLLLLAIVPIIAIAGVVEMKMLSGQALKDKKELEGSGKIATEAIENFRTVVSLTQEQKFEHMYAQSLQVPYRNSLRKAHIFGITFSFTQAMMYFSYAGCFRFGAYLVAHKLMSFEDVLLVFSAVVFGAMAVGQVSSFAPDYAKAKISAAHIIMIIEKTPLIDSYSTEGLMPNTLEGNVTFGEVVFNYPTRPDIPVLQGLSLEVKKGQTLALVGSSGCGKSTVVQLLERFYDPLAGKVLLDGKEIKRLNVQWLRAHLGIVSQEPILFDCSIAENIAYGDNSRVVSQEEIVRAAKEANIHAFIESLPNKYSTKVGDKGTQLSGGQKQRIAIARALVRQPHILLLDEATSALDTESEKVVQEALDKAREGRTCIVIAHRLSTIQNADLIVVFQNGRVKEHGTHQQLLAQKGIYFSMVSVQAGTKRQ", "details": "cited from earlier work"}, "[3]": {"tested_on": "breast carcinoma subcutaneous tumors", "assay": "Tumor growth assay, established breast carcinoma subcutaneous tumors", "format": "in vivo, mouse", "details": "FIG. 9B; cyclophosphamide single dose 80 mg/kg; huKS-IL2 30 μg x 5 daily doses, 3 days after cyclophosphamide in combination; Day 25"}, "[4]": {"tested_on": "4T1 breast carcinoma cells", "details": "FIG. 9; cyclophosphamide single dose 15 or 40 mg/kg; combination: huKS-IL2 15 ug/day for 5 days from three days later", "protocol": "4T1 breast carcinoma cells were injected intravenously into immuno-competent mice to establish pulmonary metastases 3 days before treatment."}, "[5]": {"tested_on": "lung carcinoma subcutaneous tumors", "assay": "Tumor growth assay, established lung carcinoma subcutaneous tumors", "format": "in vivo, mouse", "details": "FIG. 9C; cyclophosphamide single dose 80 mg/kg; huKS-IL2 20 μg x 5 daily doses, 3 days after cyclophosphamide in combination; Day 20"}, "CT26/KSA cells": {"tested_on": "CT26/KSA cells", "assay": "Cytotoxicity assay (MTS, verified by crystal violet)", "format": "cell-based", "details": "Mus musculus, CT26, 144 h; read-out: Paclitaxel IC50", "protocol": "(§2) The cell lines engineered for use in animal models (example 1) were tested for their sensitivity to taxane-induced cytotoxicity in cell culture in the presence or absence of the an IL-2 based immunocytokine consisting of the humanized form of the KS-1/4 antibody fused at the carboxyl terminus of the H chain to human IL-2 (huKS-huγ1-huIL2, hereafter abbreviated, KS-IL2). Cells were seeded at 1000 cell/well in 96 well flat-bottom plates and incubated for 24 hours at 37° C., 7% CO2. Paclitaxel, at 2-fold dilutions from 200 ng/ml to 3.125 ng/ml, KS-IL2, at 200 ng/ml and IL-2, at 33.3 ng/ml (the equivalent amount of IL-2 in KS-IL2) were added in duplicate to the cell culture plates and incubated for 6 days at 37° C., 7% CO2. The MTS calorimetric assay (Promega), a measure of cell viability based on the cellular conversion of a tetrazolium salt, was performed directly in the 96 well plates. After plates were read and recorded, viable adherent cells were stained with Crystal violet (Sigma, St. Louis, Mo). Crystal violet stained plates were used to verify MTS assay results. […] The IC50 is the concentration of drug that produced cytotoxicity at a level of 50% of control.\n(§3) A cytotoxicity assay was performed with paclitaxel (3 to 200 ng/ml) alone or combined with KS-IL2 (200 ng/ml) or IL-2 (33.3 ng/ml, the equivalent amount of IL-2 in KS-IL2) against CT26/KSA, LLC/KSA and 4T1/KSA cells."}, "[6]": {"tested_on": "4T1/KSA breast carcinoma cells", "assay": "Experimental lung metastasis model with 4T1/KSA cells", "format": "in vivo, mouse", "details": "for reduction of average lung weights: FIG. 4, combination with KS-IL2 15 μg/dose x 3 days given 4 hr after paclitaxel", "method": "For experimental lung metastases studies, a single cell suspension of 2.5×10^5 4T1/KSA cells in 100 μl of PBS was slowly injected using a 27½ gauge needle into the lateral tail vein on Day 0. About 3 weeks-after inoculation animals were sacrificed; their lungs were removed and weighed. […] Data are presented in graphic form. Graphs depict average tumor burdens (+/− SEM) at time of sacrifice. Tumor burden was determined by subtracting the weight of a normal lung from the weight of the experimental lungs.\nFor this experiment we used an experimental lung metastasis model induced with 4T1/KSA breast carcinoma cells. The doses of the drugs were selected to be sub-optimal by themselves so that any potential additive or synergistic activity could be observed."}, "LLC/KSA cells": {"tested_on": "LLC/KSA cells", "assay": "Cytotoxicity assay (MTS, verified by crystal violet)", "format": "cell-based", "details": "Mus musculus, 144 h; read-out: Paclitaxel IC50", "protocol": "as §2, §3"}, "4T1/KSA cells": {"tested_on": "4T1/KSA cells", "assay": "Cytotoxicity assay (MTS, verified by crystal violet)", "format": "cell-based", "details": "Mus musculus, 144 h; read-out: Paclitaxel IC50", "protocol": "as §2, §3"}, "[7]": {"tested_on": "CT26/KSA colon carcinoma skin tumors", "assay": "CT26/KSA established skin tumor growth assay", "format": "in vivo, mouse", "details": "paclitaxel single dose 75 mg/kg", "method": "as §1\nData are presented in graphic form. Graphs depict individual or average tumor volumes (+/− SEM) during and after dosing. […]"}, "[8]": {"tested_on": "CT26/KSA liver metastases", "details": "FIG. 6, combination: KS-IL2 7 ug for 5 days from one day later", "protocol": "For experimental hepatic metastases studies, mice were anesthetized using 80 mg/kg ketamine HCL (Fort Dodge Animal Health, Fort Dodge, Iowa) and 5 mg/kg xylazine (Bayer, Shawnee Mission, Kans.). A single cell suspension of 1×10^5 CT26/KSA cells in 100 μl of DMEM containing 25 mM HEPES (GIBCO) was injected using a 27½ gauge needle beneath the splenic capsule over a period of 60 seconds on Day 0. After another 2 minutes the splenic vessels were cauterized with a cautery unit (Roboz, Rockville, Md.) and the spleen removed. Animals were sutured using autoclips. Three weeks after inoculation the animals were sacrificed; their livers were removed and weighed. The livers were then fixed and stained in Bouin's solution (Sigma, St. Louis Mo.).\nGraphs depict average tumor burdens (+/− SEM) at the time of sacrifice. Tumor burdens were determined by subtracting the weight of a normal liver from the weight of the experimental livers. Data are also expressed as the percent of control of the average tumor burden from treated mice relative to vehicle treated mice. Student's t test was performed on the individual tumor burdens to determine significant differences.\nA second experiment was performed using the CT26/KSA model, this time testing the effect of combined therapy on established liver metastases and again using the 24 hr delay between paclitaxel administration and KS-IL2 treatment. We also compared the dose response of paclitaxel in the combination therapy. Mice were injected with 25, 50, or 75 mg/kg of paclitaxel on Day 5 after metastasis induction, alone or followed one day later with KS-IL2 (7 ug) for 5 days."}, "[9]": {"details": "comparative statement, Polizzi et al. 1999"}, "[10]": {"details": "FIG. 3, paclitaxel multiple doses 50 mg/kg every other day, combination: KS-IL2 one week following paclitaxel"}},
  "note": "Where two headings read alike, the source gives them in different places.",
  "data": [
    {"smiles": "N.N.O=C([O-])C1(C(=O)[O-])CCC1.[Pt+2]", "note": "[Carboplatin]", "values": [
      {"measurement": "effect on tumor growth / average tumor volume on Day 20", "setting": "LLC/KSA tumors; FIG. 10, Carboplatin 75 mg/kg Day 0, KS-IL2 20 ug per day for 5 days, three days after Carboplatin in combination", "result": "modest decrease"}
    ]},
    {"smiles": "CC(=O)O[C@H]1C(=O)[C@@]2(C)[C@H]([C@H](OC(=O)c3ccccc3)[C@]34OC(=O)O[C@H]3[C@H](OC(=O)[C@H](O)[C@H](CC(C)C)NC(=O)OC(C)(C)C)C(C)=C1C4(C)C)[C@]1(OC(C)=O)CO[C@@H]1C[C@@H]2O", "note": "[IDN5109]", "values": [
      {"measurement": "neurotoxic side effects", "setting": "[1]; [9]", "result": "less neurotoxic side effects"},
      {"measurement": "tolerated dose", "setting": "[1]; [9]", "result": "higher tolerated dose"},
      {"measurement": "oral bioavailability", "setting": "[1]; in vivo, po", "result": "orally bioavailable"},
      {"measurement": "activity against multidrug resistant tumors", "setting": "[2]", "result": "generally more active"},
      {"measurement": "substrate for P-glycoprotein", "setting": "P-glycoprotein", "result": "poor substrate"}
    ]},
    {"smiles": "O=P1(N(CCCl)CCCl)NCCCO1", "note": "(centres unmarked) [cyclophosphamide]", "values": [
      {"measurement": "reduction of average tumor volumes", "setting": "[3]", "result": 69, "unit": "%"},
      {"measurement": "lung metastasis tumor burden", "setting": "[4]", "result": "modest reduction"},
      {"measurement": "reduction of average tumor volumes", "setting": "[5]", "result": 27, "unit": "%"}
    ]},
    {"smiles": "CC(=O)O[C@H]1C(=O)[C@@]2(C)[C@H]([C@H](OC(=O)c3ccccc3)[C@]3(O)C[C@H](OC(=O)[C@H](O)[C@@H](NC(=O)c4ccccc4)c4ccccc4)C(C)=C1C3(C)C)[C@]1(OC(C)=O)CO[C@@H]1C[C@@H]2O", "note": "[paclitaxel]", "values": [
      {"measurement": "IC50", "setting": "CT26/KSA cells", "result": 0.027, "unit": "µg/mL"},
      {"measurement": "weight loss, comparison of groups", "setting": "[6]; 25 mg/kg of paclitaxel given 3 times every other day", "result": "greatest weight loss"},
      {"measurement": "reduction of average lung weights", "setting": "[6]; paclitaxel multiple doses 25 mg/kg x 3 days", "result": 49, "unit": "%"},
      {"measurement": "reduction of average lung weights", "setting": "[6]; paclitaxel single dose 75 mg/kg", "result": 43, "unit": "%"},
      {"measurement": "IC50", "setting": "LLC/KSA cells", "result": 0.006, "unit": "µg/mL"},
      {"measurement": "IC50", "setting": "4T1/KSA cells", "result": 0.016, "unit": "µg/mL"},
      {"measurement": "effect on tumor growth, agent given alone", "setting": "LLC/KSA tumors; FIG. 2, paclitaxel single dose 80 mg/kg, KS-IL2 20 μg i.v. Days 0-4", "result": "No effect"},
      {"measurement": "average tumor volume", "setting": "LLC/KSA tumors; [10]", "result": "63 % of control"},
      {"measurement": "tumor growth delay (TGD)", "setting": "LLC/KSA tumors; [10]", "result": 4, "unit": "days"},
      {"measurement": "effect on tumor growth", "setting": "[7]; Example 9, huKS-muγ2a-muIL12 5 μg per day for 5 days, starting 24 hr after paclitaxel in combination", "result": "very little effect"},
      {"measurement": "effect on tumor growth, alone", "setting": "[7]; FIG. 5", "result": "no effect"},
      {"measurement": "tumor burden", "setting": "[8]; paclitaxel 25 mg/kg on Day 5", "result": "49 % of control"},
      {"measurement": "tumor burden", "setting": "[8]; paclitaxel 50 mg/kg on Day 5", "result": "23 % of control"},
      {"measurement": "tumor burden", "setting": "[8]; paclitaxel 75 mg/kg on Day 5", "result": "10 % of control"}
    ]}
  ]
}
